According to US7713994B2 (Wyeth LLC, priority 2005, dated 2010):
Read-outs that look alike come from different tables or passages of the source.

Experiments:
LoVo = experiment: Cytotoxicity assay (SRB), LoVo; format: cell-based; settings: LoVo cells, SRB, read-out: In Vitro Cellular Activity IC50 LOVO
Outline: (§1)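 Plate cells, let them attach overnight, add compound dilutions in RPMI 1640/5% FBS, and incubate 3 days (BT474 6 days). Then fix with TCA, stain with SRB, dissolve the dye in Tris and read at 540 nm.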

cyclin B/CDK1 enzyme = biological target: T1, cyclin B/CDK1 enzyme (Homo sapiens, UniProt P06493); experiment: CDK1 ELISA kinase assay (phospho-Rb ser 795 detection); format: biochemical
T1 construct: purchased New England BioLabs; host or cells: Sf9 insect cells, recombinant baculovirus
T1 sequence (P06493 whole entry): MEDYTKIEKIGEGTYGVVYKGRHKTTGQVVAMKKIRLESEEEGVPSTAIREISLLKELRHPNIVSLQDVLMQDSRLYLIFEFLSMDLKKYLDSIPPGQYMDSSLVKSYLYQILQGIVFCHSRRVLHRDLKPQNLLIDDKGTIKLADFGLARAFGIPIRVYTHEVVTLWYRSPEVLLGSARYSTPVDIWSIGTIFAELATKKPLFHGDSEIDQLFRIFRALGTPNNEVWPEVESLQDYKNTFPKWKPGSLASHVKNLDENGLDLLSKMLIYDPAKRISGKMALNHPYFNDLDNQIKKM
T1 sequence (P14635 whole entry partner): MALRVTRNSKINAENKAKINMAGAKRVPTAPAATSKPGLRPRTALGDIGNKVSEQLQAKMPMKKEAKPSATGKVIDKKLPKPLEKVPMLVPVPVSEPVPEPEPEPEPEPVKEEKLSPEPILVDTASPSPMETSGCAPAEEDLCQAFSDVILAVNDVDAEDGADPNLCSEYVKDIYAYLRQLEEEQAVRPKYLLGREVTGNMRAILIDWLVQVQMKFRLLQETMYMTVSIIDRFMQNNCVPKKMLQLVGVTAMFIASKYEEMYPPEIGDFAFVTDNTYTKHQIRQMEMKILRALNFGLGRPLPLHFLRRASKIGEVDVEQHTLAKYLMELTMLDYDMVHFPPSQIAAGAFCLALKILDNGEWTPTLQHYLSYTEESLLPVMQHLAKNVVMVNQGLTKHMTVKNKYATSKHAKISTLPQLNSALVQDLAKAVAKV
Outline: (§2)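 Wells were coated overnight with GST-Rb C-terminal fragment, then blocked. Compound (10 ug/ml final) and cyclin/CDK enzyme from baculovirus-infected Sf9 cells with 200 μM ATP reacted 1 h at 30° C. Ser795 phosphorylation was detected by ELISA at 450 nm.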

SK-UT-1B = experiment: In Vitro Cellular Activity (Table III), SK-UT-1B; format: cell-based; settings: SK-UT-1B cells
cyclin D1/cdk 4 enzyme = biological target: T2, cyclin D1/cdk 4 enzyme (Homo sapiens, UniProt P11802); experiment: CDK4 ELISA kinase assay (phospho-Rb ser 795 detection); format: biochemical
T2 construct: made in house; host or cells: Sf9 insect cells, recombinant baculovirus
T2 sequence (P11802 whole entry, species assumed): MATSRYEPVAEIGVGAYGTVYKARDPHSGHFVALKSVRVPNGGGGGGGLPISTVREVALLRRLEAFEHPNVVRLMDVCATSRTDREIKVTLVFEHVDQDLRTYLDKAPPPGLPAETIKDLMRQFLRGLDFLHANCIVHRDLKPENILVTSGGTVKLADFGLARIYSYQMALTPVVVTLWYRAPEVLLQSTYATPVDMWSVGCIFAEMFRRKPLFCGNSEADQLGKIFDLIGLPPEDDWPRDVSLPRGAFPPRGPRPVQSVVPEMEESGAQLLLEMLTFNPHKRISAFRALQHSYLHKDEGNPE
T2 sequence (P24385 whole entry partner, species assumed): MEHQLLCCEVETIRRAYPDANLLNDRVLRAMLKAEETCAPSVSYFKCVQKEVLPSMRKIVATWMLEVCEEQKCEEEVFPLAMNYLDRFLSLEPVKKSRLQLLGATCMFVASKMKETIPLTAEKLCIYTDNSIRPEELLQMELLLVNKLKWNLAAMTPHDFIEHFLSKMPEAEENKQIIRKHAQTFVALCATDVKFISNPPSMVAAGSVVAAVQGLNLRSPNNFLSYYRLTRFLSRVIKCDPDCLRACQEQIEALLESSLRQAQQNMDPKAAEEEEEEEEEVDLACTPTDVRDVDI
Outline: as §2

cyclin E/CDK2 enzyme = biological target: T3, cyclin E/CDK2 enzyme (Homo sapiens, UniProt P24941); experiment: CDK2 ELISA kinase assay (phospho-Rb ser 795 detection); format: biochemical
T3 construct: made in house; host or cells: Sf9 insect cells, recombinant baculovirus
Outline: as §2

MCF-7 = experiment: Cytotoxicity assay (SRB), MCF-7; format: cell-based; settings: MCF-7 cells, SRB, read-out: In Vitro Cellular Activity IC50 MCF-7
Outline: as §1

HCT-116 = experiment: Cytotoxicity assay (SRB), HCT-116; format: cell-based; settings: HCT116 cells, SRB, read-out: In Vitro Cellular Activity IC50 HCT116
Outline: as §1

BT474 = experiment: Cytotoxicity assay (SRB), BT474; format: cell-based
Outline: as §1

[1] = I.V. and P.O. Dosing in Mice; format: in vivo; settings: for AUC(0-inf) / bioavailability: mouse, in vivo; for bioavailability: po 50 mg/kg vs i.v. 2 mg/kg
[2] = Homo sapiens, LoVo, 72 h, three days
[3] = In Vitro Enzyme Assays, read-out: CDK1 IC50
[4] = In Vitro Enzyme Assays, 200 μM ATP, read-out: CDK4 IC50
[5] = In Vitro Enzyme Assays, read-out: CDK2 IC50
[6] = Homo sapiens, MCF7, 72 h, three days
[7] = Homo sapiens, HCT-116, 72 h, three days
[8] = Homo sapiens, BT-474, 144 h, BT474 cells, SRB, 6 days; read-out: In Vitro Cellular Activity IC50 BT474
[9] = Homo sapiens, LoVo, 72 h, 3 days
[10] = iv, 2 mg/kg, dose i.v. 2 mg/kg, read-out: aucinf obs (i.v.)
[11] = po, 50 mg/kg, dose po 50 mg/kg, read-out: aucinf obs (po)
[12] = In Vitro Enzyme Assay, cyclin B/CDK1, read-out: CDK1 IC50
[13] = In Vitro Enzyme Assay, cyclin D1/cdk 4, read-out: CDK4 IC50
[14] = In Vitro Enzyme Assay, cyclin E/CDK2, read-out: CDK2 IC50
[15] = Homo sapiens, MCF7, 72 h, 3 days
[16] = Homo sapiens, HCT-116, 72 h, 3 days
[17] = Homo sapiens, BT-474, 144 h, BT474 cells, 6 days, SRB; read-out: In Vitro Cellular Activity IC50 BT474
[18] = BT474 cells, SRB, 6 days; read-out: In Vitro Cellular Activity IC50 BT474

Row | Molecule | IC50 (LoVo; [2]) [µM] | IC50 (cyclin B/CDK1 enzyme; [3]) [µM] | IC50 (SK-UT-1B; Homo sapiens, Skut1B) [µM] | IC50 (cyclin D1/cdk 4 enzyme; [4]) [µM] | IC50 (cyclin E/CDK2 enzyme; [5]) [µM] | IC50 (MCF-7; [6]) [µM] | IC50 (HCT-116; [7]) [µM] | IC50 (BT474; [8]) [µM] | IC50 (LoVo; [9]) [µM] | melting point | Cl_obs ([1]; dose i.v. 2 mg/kg) [mL/min/kg] | Vss_obs ([1]; dose i.v. 2 mg/kg) [L/kg] | HL_Lambda_z ([1]; dose po 50 mg/kg) [h] | AUC(0-inf) [1, 10] [ng·h/mL] | AUC(0-inf) [1, 11] [ng·h/mL] | bioavailability ([1]; po, 50 mg/kg) [%] | IC50 (cyclin E/CDK2 enzyme; [14]) [µM] | IC50 (MCF-7; [15]) [µM] | IC50 (HCT-116; [16]) [µM] | IC50 (BT474; [17]) [µM] | other results
1 | O=C1NC(=O)c2ccccc2/C1=C/Nc1ccc(N2CCOCC2)cc1 [Example 6, (4Z)-4-{[(4-Morpholin-4-ylphenyl)amino]methylene}isoquinoline-1,3(2H,4H)-dione] | > 50 | > 29 | 18.3 | > 50 | > 29 | > 50 | > 50 | > 50 |  |  |  |  |  |  |  |  |  |  |  |  | 
2 | O=C1NC(=O)c2ccc(I)cc2/C1=C/NCc1cc(O)c(-c2ccoc2)cn1 [Example 527, (4Z)-{[(5-Furan-3-yl-4-hydroxy-pyridin-2-ylmethyl)-amino]-methylene}-6-iodo-4H-isoquinoline-1,3-dione] |  |  |  |  |  |  |  |  | 0.49 | 213 to 228 °C (dec.) | 5 | 0.5 | 3.4 | 6060 | 1400 | 0.9 | 2.3 | 2.7 | 0.55 | 0.09 | IC50 (cyclin B/CDK1 enzyme; [12]): 13.5 µM; IC50 (cyclin D1/cdk 4 enzyme; [13]): 0.03 µM
3 | CN1CCN(c2ccc(N/C=C3\C(=O)NC(=O)c4cc(Br)ccc43)cc2)CC1 [Example 45, (4Z)-7-Bromo-4-({[4-(4-methylPiperzin-1-yl)phenyl]amino}methylene)isoquinoline-1,3(2H,4H)-dione] | 33 | > 50 | 31 |  | 47 | 18.8 | 5 | 19 |  |  |  |  |  |  |  |  |  |  |  |  | 
4 | CC(C)(C)c1ccc2c(c1)/C(=C/NCc1cc(O)c(-c3ccccc3)cn1)C(=O)NC2=O [Example 531, 6-tert-Butyl-4-{[(4-hydroxy-5-phenyl-pyridin-2-ylmethyl)-amino]-methylene}-4H-isoquinoline-1,3-dione] |  |  |  |  |  |  |  |  | 0.1 | 195 to 218 °C (dec.) | 23 | 0.9 | 5.2 | 1450 | 879 | 2.5 | 2.6 | 0.7 | 0.15 | 0.04 | IC50 (cyclin B/CDK1 enzyme; [12]): 16.3 µM
5 | O=C1NC(=O)c2ccccc2/C1=C/Nc1cccc(CCN2CCCC2)c1 [Example 22, (4Z)-4-({[3-(2-Pyrrolidin-1-ylethyl)phenyl]amino}methylene)isoquinoline-1,3(2H,4H)-dione] | 19 |  | 5.4 |  |  | 10 | 11 | 21 |  |  |  |  |  |  |  |  |  |  |  |  | 
6 | CN1CCN(c2ccc(N/C=C3\C(=O)NC(=O)c4ccccc43)cc2)CC1 [compound 4] | 13 | > 28 | 12.7 |  |  | 5.5 | 9.1 | 18 |  |  |  |  |  |  |  |  |  |  |  |  | 
7 | (4E)-4-(2,3-dimethoxybenzylidene)isoquinoline-1,3(2H,4H)-dione-(4Z)-4-(2,3-dimethoxybenzylidene)isoquinoline-1,3(2H,4H)-dione (1:1) [Example 9] |  | > 32 |  | > 50 | > 32 |  |  |  |  |  |  |  |  |  |  |  |  |  |  |  | IC50 (LoVo; three days): 6.8 µM; IC50 (SK-UT-1B): 15.1 µM; IC50 (MCF-7; three days): 9.7 µM; IC50 (HCT-116; three days): 2.5 µM; IC50 (BT474; [18]): 48 µM
8 | CCCOc1cnc(CN/C=C2\C(=O)NC(=O)c3ccc(C4CCCC4)cc32)cc1O [Example 538, 6-Cyclopentyl-4-{[(4-hydroxy-5-propoxy-pyridin-2-ylmethyl)-amino]-methylene}-4H-isoquinoline-1,3-dione] |  |  |  |  |  |  |  |  | 0.07 | 263 to 266 °C (dec.) | 5 | 0.2 | 7.1 | 6630 | 1040 | 0.63 | 1.2 | 0.3 | 0.15 | 0.06 | 
9 | COc1ccc(/C=C2/C(=O)NC(=O)c3ccccc32)cc1OC [Example 12, (4E)-4-(3,4-dimethoxybenzylidene)isoquinoline-1,3(2H,4H)-dione] | 5.4 | > 32 | > 32 | > 50 | > 32 | 14.5 | 2.1 | > 50 |  |  |  |  |  |  |  |  |  |  |  |  | 
10 | (4Z)-4-[({3-Chloro-4-{(4chlorobenzyl)oxy]phenyl}amino)methylene]isoquinoline-1,3(2H,4H-dione [Example 15] |  |  |  |  |  |  |  |  |  |  |  |  |  |  |  |  |  |  |  |  | IC50 (LoVo; three days): 50 µM; IC50 (SK-UT-1B): 11.6 µM; IC50 (MCF-7; three days): 28 µM; IC50 (HCT-116; three days): 10.3 µM; IC50 (BT474; [18]): > 50 µM
11 | CCCOc1cnc(CN/C=C2\C(=O)NC(=O)c3ccc(C(C)(C)C)cc32)cc1O [Example 530, 6-tert-Butyl-4-{[(4-hydroxy-5-propoxy-pyridin-2-ylmethyl)-amino]-methylene}-4H-isoquinoline-1,3-dione] |  |  |  |  |  |  |  |  | 0.28 | 162 to 178 °C (dec.) | 15 | 0.2 | 5.3 | 2240 | 7200 | 13 | 0.96 | 0.7 | 0.43 | 0.24 | 
12 | O=C1NC(=O)c2ccc(I)cc2/C1=C/NCc1cc(O)c(-c2ccccc2)cn1 [Example 524, (4Z)-{[(4-Hydroxy-5-phenyl-pyridin-2-ylmethyl)-amino]-methylene}-6-iodo-4H-isoquinoline-1,3-dione] |  |  |  |  |  |  |  |  | 0.12 | 292 to 293 °C (dec.) | 35 | 2.4 |  | 952 |  | 0 | 2.2 | 0.89 | 0.11 | 0.03 | IC50 (cyclin B/CDK1 enzyme; [12]): 27.9 µM; IC50 (cyclin D1/cdk 4 enzyme; [13]): 0.04 µM
13 | O=C1NC(=O)c2ccccc2/C1=C/Nc1ccc(CN2CCOCC2)cc1 [Example 19, (4Z)-4-({[4-(Morpholin-4-ylmethyl)phenyl]amino}methylene)isoquinoline-1,3(2H,4H)-dione] |  | > 27 | 21.4 | 10.7 | 21.6 | 15.9 | 20 |  |  |  |  |  |  |  |  |  |  |  |  |  | 
14 | CN1CCN(c2ccc(N/C=C3\C(=O)NC(=O)c4ccc(-c5ccsc5)cc43)cc2)CC1 [Example 107, (4Z)-4-({[4-(4-Methylpiperazin-1-yl)phenyl]amino}methylene)-6-thien-3-ylisoquinoline-1,3(2H,4H)-dione] | 2.3 | > 50 |  | 0.08 | > 50 | 2.3 | 1.4 | 2.5 |  | 224 to 226 °C | 37 | 11 | 7.4 | 901 | 4100 | 18.2 |  |  |  |  | 
15 | CN(C)Cc1ccc(N/C=C2\C(=O)NC(=O)c3ccccc32)cc1 [Example 25, (4Z)-4-[({4[(Dimethylamino)methyl]phenyl}amino)methylene]isoquinolin-1,3(2H,4H)-dione] |  | > 29 | 16.2 | 6.6 | 22.7 | 5.6 | 11.5 |  |  |  |  |  |  |  |  |  |  |  |  |  | 
16 | O=C1NC(=O)c2ccccc2/C1=C/Nc1ccc2cn[nH]c2c1 [compound 7] |  | > 33 | 4.3 | 9.5 | 5.6 | 11.2 | 6.57 |  |  |  |  |  |  |  |  |  |  |  |  |  | 
